Like-named read-outs stand apart in the source and are kept apart here.
What was measured:
[1] = target: T1, glutathione-S-transferase (GST) tagged LXRalpha LBD (ligand binding domain) (Homo sapiens, UniProt Q13133); assay: LanthaScreen TR-FRET Liver X Receptor Coactivator Assay, co-activator recruitment to LXRalpha LBD; type: biochemical
T1 construct: purchased Invitrogen pv4655
T1 sequence (Q13133 209-447 limits assumed): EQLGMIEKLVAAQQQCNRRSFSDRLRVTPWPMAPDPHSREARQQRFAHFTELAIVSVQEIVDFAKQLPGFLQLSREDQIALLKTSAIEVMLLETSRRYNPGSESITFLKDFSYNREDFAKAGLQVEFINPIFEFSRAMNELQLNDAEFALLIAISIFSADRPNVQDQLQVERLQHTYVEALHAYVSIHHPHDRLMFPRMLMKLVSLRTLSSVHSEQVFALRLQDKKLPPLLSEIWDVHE
Summary of the method: (§1)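 GST-tagged LBD added to test compound, then fluorescein-labelled coactivator peptide plus terbium anti-GST antibody; incubated at room temperature, TR-FRET read. Potency given as inflection point and efficacy as Emax relative to reference dual agonist T0901317.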

[2] = target: T2, glutathione-S-transferase (GST) tagged LXRbeta LBD (ligand binding domain) (Homo sapiens, UniProt P55055); assay: LanthaScreen TR-FRET Liver X Receptor Coactivator Assay, co-activator recruitment to LXRbeta LBD; type: biochemical
T2 construct: purchased Invitrogen pv4658.pps
T2 sequence (P55055 222-460 limits assumed): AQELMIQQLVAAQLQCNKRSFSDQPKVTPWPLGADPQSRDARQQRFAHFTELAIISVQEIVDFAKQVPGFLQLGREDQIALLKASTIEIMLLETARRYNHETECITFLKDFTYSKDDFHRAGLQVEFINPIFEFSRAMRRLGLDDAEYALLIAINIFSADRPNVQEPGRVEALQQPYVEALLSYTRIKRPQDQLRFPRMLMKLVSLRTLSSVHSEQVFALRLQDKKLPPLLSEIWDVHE
Summary of the method: as §1

[3] = efficacy at max dose, in relation to reference dual agonist T0901317, read-out: LXR alpha Activity @ max dose (%)
[4] = potency (Inflection Point, IP), co-activator recruitment to LXRalpha LBD, in relation to T0901317, read-out: LXR alpha IP
[5] = efficacy at max dose, in relation to reference dual agonist T0901317, read-out: LXR beta Activity @ max dose (%)
[6] = potency (Inflection Point, IP), co-activator recruitment to LXRbeta LBD, in relation to T0901317, read-out: LXR beta IP
[7] = efficacy at max dose, in relation to reference dual agonist T0901317
[8] = potency (Inflection Point, IP), co-activator recruitment to LXRalpha LBD, in relation to T0901317
[9] = read-out: LXR alpha Activity @ max dose (%)
[10] = LXR beta IP (nM), potency (Inflection Point, IP), co-activator recruitment to LXRbeta LBD, in relation to T0901317
[11] = read-out: LXR beta Activity @ max dose (%)

Row | Emax [1, 3] [%] | EC50 [1, 4] [nM] | Emax [2, 5] [%] | EC50 [2, 6] [nM] | Structure (SMILES) | further results
1 | 19 | 4620 | 82 | 371 | CN(C)C(=O)c1ccc(N2CCC(OC3CCN(C(=O)C4(c5ccccc5)CCC4)CC3)CC2)cc1Cl [Example 2-27, 2-chloro-N,N-dimethyl-4-[4-({1-[(1-phenyl-cyclobutyl)carbonyl]piperidin-4-yl}oxy)piperidin-1-yl]benzamide] | –
2 | 38 | 140 | 83 | 7 | CN(C)C(=O)c1ccc(N2CCC(CC3CCN(C(=O)[C@](O)(c4cccc(F)c4)C(F)(F)F)CC3)CC2)cc1Cl [Example 2-84, 2-chloro-N,N-dimethyl-4-[4-({1-[(2R)-3,3,3-trifluoro-2-(3-fluoro-phenyl)-2-hydroxy-propanoyl]piperidin-4-yl}methyl)piperidin-1-yl]benzamide] | –
3 | 18 | 1070 | 75 | 30 | CCc1cccc([C@@](O)(C(=O)N2CC(CC3CCN(c4ccc(C(=O)N(C)C)c(Cl)c4)CC3)C2)C(F)(F)F)c1 [Example 2-64, 2-chloro-4-[4-({1-[(2R)-2-(3-ethyl-phenyl)-3,3,3-trifluoro-2-hydroxy-propanoyl]azetidin-3-yl}methyl)piperidin-1-yl]-N,N-dimethyl-benzamide] | –
4 | 12 | 1020 | 118 | 64 | CN(C)C(=O)c1ccc(N2CCC(CC3CCN(C(=O)[C@@](O)(c4cccc(Br)c4)C(F)(F)F)CC3)CC2)nc1Cl [Example 7-68, 6-[4-({1-[(2S)-2-(3-bromophenyl)-3,3,3-trifluoro-2-hydroxypropanoyl]piperidin-4-yl}methyl)piperidin-1-yl]-2-chloro-N,N-dimethylpyridine-3-carboxamide] | –
5 | 27 | 4390 | 113 | 446 | CNC(=O)c1ccc(N2CCC(OC3CCN(C(=O)C4(c5ccccc5F)CCCC4)CC3)CC2)cc1Cl [Example 7-27, 2-chloro-4-{4-[(1-{[1-(2-fluorophenyl)cyclopentyl]carbonyl}piperidin-4-yl)oxy]piperidin-1-yl}-N-methylbenzamide] | –
6 | 27 | 340 | 90 | 16 | CNC(=O)c1ccc(N2CCC(CC3CCN(C(=O)C(O)(c4cccc(Cl)c4)C(F)(F)F)CC3)CC2)cc1Cl (stereo not shown) [Example 7-37, 2-chloro-4-[4-({1-[2-(3-chlorophenyl)-3,3,3-trifluoro-2-hydroxypropanoyl]piperidin-4-yl}methyl)piperidin-1-yl]-N-methylbenzamide] | –
7 | 2 | – | 66 | 26 | CC(C)Oc1cccc([C@@](O)(C(=O)N2CC(CC3CCN(c4ccc(C(=O)N(C)C)c(Cl)c4)CC3)C2)C(F)(F)F)c1 [Example 2-60, 2-chloro-N,N-dimethyl-4-{4-[(1-{(2R)-3,3,3-trifluoro-2-hydroxy-2-[3-(1-methyl-ethoxy)phenyl]propanoyl}azetidin-3-yl)methyl]piperidin-1-yl}benzamide] | LXR alpha IP (nM) [1, 8]: NO IP
8 | 22 | 156 | 65 | 21 | Cc1cc(N2CCC(CC3CCN(C(=O)[C@](O)(c4cccc(Cl)c4)C(F)(F)F)CC3)CC2)ccc1C(=O)N(C)C [Example 2-159, 4-[4-({1-[(2R)-2-(3-chloro-phenyl)-3,3,3-trifluoro-2-hydroxy-propanoyl]piperidin-4-yl}methyl)piperidin-1-yl]-N,N,2-trimethyl-benzamide] | –
9 | – | – | – | – | COc1cccc(S(=O)(=O)N2CC(CC3CCN(c4ccc(C(=O)N(C)C)c(Cl)c4)CC3)C2)c1 [Example 13-2, 2-chloro-4-[4-({1-[(3-methoxyphenyl)-sulfonyl]azetidin-3-yl}methyl)piperidin-1-yl]-N,N-dimethyl-benzamide] | EC50 ([1]; co-activator recruitment to GST-LXRalpha LBD, TR-FRET, read-out: LXR alpha IP (Inflection Point, potency)): 3390 nM; Emax ([1]; efficacy in relation to reference dual agonist T0901317, read-out: LXR alpha Activity @ max dose): 26%; EC50 ([2]; co-activator recruitment to GST-LXRbeta LBD, TR-FRET, read-out: LXR beta IP (Inflection Point, potency)): 96 nM; Emax ([2]; efficacy in relation to reference dual agonist T0901317, read-out: LXR beta Activity @ max dose): 70%
10 | 31 | 195 | 69 | 17 | COCCN(C)C(=O)c1ccc(N2CCC(CC3CCN(C(=O)[C@](O)(c4ccccc4)C(F)(F)F)CC3)CC2)cc1Cl [Example 4-9] | –
11 | 41 | 123 | 95 | 8 | Cc1cc(N2CCC(CC3CCN(C(=O)[C@](O)(c4cc(F)cc(Cl)c4)C(F)(F)F)CC3)CC2)ccc1C(=O)N(C)C [Example 2-153, 4-[4-({1-[(2R)-2-(3-chloro-5-fluorophenyl)-3,3,3-trifluoro-2-hydroxy-propanoyl]piperidin-4-yl}methyl)piperidin-1-yl]-N,N,2-trimethyl-benzamide] | –
12 | – | – | – | – | CN(C)C(=O)c1ccc(N2CCC(CC3CCN(C(=O)C(O)(c4ccccc4)C4CC4)CC3)CC2)nc1Cl (stereo not shown) [Example 7-99, 2-chloro-6-[4-({1-[cyclopropyl(hydroxy)phenylacetyl]piperidin-4-yl}methyl)piperidin-1-yl]-N,N-dimethylpyridine-3-carboxamide] | EC50 ([1]; LXR alpha IP (nM), potency (Inflection Point, IP), co-activator recruitment to LXRalpha LBD, in relation to T0901317): 2790 nM; Emax [1, 9]: 20%; EC50 [2, 10]: 48 nM; Emax [2, 11]: 74%
13 | 6 | – | 54 | 23 | Cc1cc(N2CCC(CC3CCN(C(=O)[C@](O)(c4cc(Cl)cc(Cl)c4)C(F)(F)F)CC3)CC2)ccc1C(=O)N(C)C [Example 2-154, 4-[4-({1-[(2R)-2-(3,5-dichloro-phenyl)-3,3,3-trifluoro-2-hydroxy-propanoyl]piperidin-4-yl}methyl)piperidin-1-yl]-N,N,2-trimethyl-benzamide] | LXR alpha IP (nM) [1, 8]: NO IP
14 | 12 | – | 60 | 22 | CCc1cccc([C@@](O)(C(=O)N2CCC(CC3CCN(c4ccc(C(=O)NC)c(Cl)c4)CC3)CC2)C(F)(F)F)c1 [Example 7-120, 2-chloro-4-[4-({1-[(2R)-2-(3-ethylphenyl)-3,3,3-trifluoro-2-hydroxypropanoyl]piperidin-4-yl}methyl)piperidin-1-yl]-N-methylbenzamide] | LXR alpha IP (nM) [1, 8]: NO IP
15 | – | – | – | – | CN(C)C(=O)c1ccc(N2CCC(CC3CCN(C(=O)C(O)(c4ccccc4)C4CCCC4)CC3)CC2)nc1Cl (stereo not shown) [Example 7-94, 2-chloro-6-[4-({1-[cyclopentyl(hydroxy)phenylacetyl]piperidin-4-yl}methyl)piperidin-1-yl]-N,N-dimethylpyridine-3-carboxamide] | LXR alpha IP (nM) [1, 8]: NO IP; Emax [1, 9]: 10%; EC50 [2, 10]: 72 nM; Emax [2, 11]: 62%
16 | 30 | 464 | 80 | 17 | CN(C)C(=O)c1ncc(N2CCC(CC3CCN(C(=O)C(O)(c4cccc(F)c4)C(F)(F)F)CC3)CC2)cc1Cl (stereo not shown) [Example 2-7, 3-chloro-N,N-dimethyl-5-[4-({1-[3,3,3-trifluoro-2-(3-fluorophenyl)-2-hydroxy-propanoyl]piperidin-4-yl}methyl)piperidin-1-yl]pyridine-2-carboxamide] | –

Row | Structure (SMILES) | Emax [1, 3] [%] | EC50 [1, 4] [nM] | Emax [2, 5] [%] | EC50 [2, 6] [nM] | further results
17 | COc1cccc([C@@](O)(C(=O)N2CCC(CC3CCN(c4ccc(C(=O)N(C)C)c(C)n4)CC3)CC2)C(F)(F)F)c1 [Example 7-8, N,N,2-trimethhyl-6-[4-({1-[(2R)-3,3,3-trifluoro-2-hydroxy-2-(3-methoxyphenyl)propanoyl]piperidin-4-yl}methyl)piperidin-1-yl]pyridine-3-carboxamide] | – | – | – | 12 | LXR alpha Activity @ max dose (%) [1, 7]: 6%; LXR beta Activity @ max dose (%) [2, 7]: 53%
